Values joined by “and” are separate entries in the source; they are usually repeats but may differ in a detail not shown here. Equal entries are not always repeated.
Columns and labels:
BM derived MDSC [1] = assay: OT-I proliferation assay with BM derived MDSC; format: cell-based, mouse; settings: MDSC pulsed with α-GalCer in the presence of BM resident iNKT cells from WT mice
human MDSC = assay: iNKT cell dependent killing of α-GalCer pulsed human MDSC (Propidium Iodide); format: cell-based; settings: α-GalCer 100 ng/ml, MDSC:iNKT cell ratio of 1:0.25, 24 h
Procedure: (B) Conditions to prevent lysis of α-GalCer pulsed human MDSC by iNKT cells. Human MDSC (0.5×10^6) were treated with α-GalCer (100 ng/ml) and co-cultured with increasing numbers of iNKT cells for 24 h. MDSC were stained with Propidium Iodide to calculate the percentage of iNKT cell dependent MDSC killing.

NOS2 = NOS2 activity of α-GalCer pulsed MDSC (nitrate/nitrite release); format: cell-based, mouse; settings: MDSC pulsed with 100 ng α-GalCer in the presence of iNKT cells
Procedure: (§1) (A) Loss of ARG1 and NOS2 activity in α-GalCer pulsed MDSC incubated with BM derived iNKT cells. MDSC were treated with α-GalCer in the presence of iNKT cells and collected at different time points. ARG1 and NOS2 activities were measured using a colorimetric assay to evaluate urea and nitrate/nitrite release, respectively (De Santo et al. 2005. Proc Natl Acad Sci USA 102:4185-4190. Serafini et al. 2006. J Exp Med 203:2691-2702). An ELISA was used to evaluate IL-12p40 production. Values are shown as a percentage of time point 0. The maximum amount of urea released by untreated MDSC (1×10^6) was 91.7 μg. The maximum amount of […] measured in the supernatant of untreated MDSC was 120 μM. The maximum amount of IL-12p40 was 200 ng/ml.
(§2) Measuring activity of MDSC enzymes. ARG1 and NOS2 activities of α-GalCer pulsed BM-derived MDSC co-cultured with BM derived iNKT cells were assessed at different time points. NOS2 activity was measured from supernatants by Griess reaction, as the amount of NO3- and NO2-produced using a nitrate/nitrite assay kit (Cayman Chemicals) (Proc Natl Acad Sci USA 102:4185-4190). ARG1 activity was measured in cell lysates, as previously described (Proc Natl Acad Sci USA 102:4185-4190).

[2] = test system: CD11b+ cells from IAV infected individuals; format: cell-based, human; settings: α-GalCer 100 ng/ml in presence of iNKT cells at MDSC:iNKT ratio 1:0.25, or ARG1 and NOS2 inhibitors; DC:CD11b+ 1:1
ARG1 = ARG1 activity of α-GalCer pulsed MDSC (urea release); format: cell-based, mouse; settings: MDSC pulsed with 100 ng α-GalCer in the presence of iNKT cells
Procedure: as §1, §2

CD11bCD15 positive cells = assay: Melan-A priming experiments with CD11bCD15 positive cells from melanoma patients; format: cell-based, human; settings: CD11bCD15 positive cells pulsed with alphaGalCer 100 ng or Threitolceramide 200 ng
Procedure: CD11bCD15 positive cells were pulsed with either alphaGalCer (100 ng) or Threitolceramide (200 ng) for 2 hours and then incubated with autologous iNKT cells overnight before adding autologous DC pulsed with Melan-A26-35 peptide and autologous CD11bCD15 cell depleted total leukocytes.
Experiments in FIG. 29 were carried out using the same conditions as shown in the right column of FIG. 28 (i.e. in the presence of iNKT cells and alphaGalCer pulsed CD11bCD15 positive cells) in the presence of either blocking anti CD1d (middle column) or blocking anti CD40 (right column) antibodies.
In order to assess whether secretion of IL-10 is contributing to the suppressive activity of CD11bCD15 positive cells, expansion of Melan-A26-35 specific T cell responses as assessed in the presence or absence of blocking anti 11-10 receptor antibodies. In the left hand panel of FIG. 31, expansion of Melan-A26-35 specific T cells was assessed using total leukocytes from which CD11b-CD15+ cells were removed (2.33%). Addition of CD11bCD15 positive cells reduced the frequency of Melan-A26-35 specific T cells (0.83%) (central panel).
Purification of CD11b/CD15+ cells. Since CD15 CD11b positive cells have granulocyte density, it is important to purify them without using density gradients, such as Ficol. Red blood cells are lysed from whole blood, using red lysis cell buffer and anti CD11b/CD15 specific antibodies are added to the leukocytes for FACS guided cell sorting.
Melan-A priming experiments. DCs were generated by culturing monocytes for 4 days in RPMI/10% FCS supplemented with 50 ng/ml GM-CSF (Pepro-tech) and 1,000 U/ml IL-4 (Salio, M., et al. 2007. Proc. Natl. Acad. Sci. U.S.A. 104:20490-20495). […] After 2 weeks, cells were stained with HLA-A2 tetramers loaded with melan-A26-35 peptide and anti CD8.
Harnessing iNKT cells. The protocol to purify Cdl lbCd15 cells and differentiate DC is similar to the protocol described earlier. Cdl lbCd15 cells were pulsed with either alphaGalCer (100 ng) or with threitolceramide (200 ng) and then incubated with iNKT cells for 12 hours. Cells were then washed pulsed with the melan-A26-35 peptide and incubated with total leukocytes. After 2 weeks in culture, cells were stained with HLA-A2 melan-A tetramers and anti-CD8 antibodies.

BM derived MDSC [3] = assay: iNKT cell dependent lysis of α-GalCer pulsed MDSC; format: cell-based, mouse; settings: MDSC pulsed with 100 ng of α-GalCer
Procedure: CFSE labelled BM derived MDSC were either pulsed or not pulsed with α-GalCer and incubated with CD11c and Gr-1 depleted BM cultures, which contain iNKT cells.

IL-12p40 = IL-12p40 production by MDSC (ELISA); format: cell-based, mouse; settings: MDSC pulsed with 100 ng α-GalCer in the presence of iNKT cells
IL-23 and IL-12p70 = IL-23 and IL-12p70 secretion by α-GalCer pulsed MDSC; format: cell-based, mouse; settings: MDSC pulsed with α-GalCer in the presence of iNKT cells; data not shown
iNKT cells = assay: IFN-γ release from iNKT cells incubated with α-GalCer pulsed CD11b+ cells; format: cell-based, human; settings: α-GalCer pulsed CD11b+ cells from IAV infected patients, 24 h
Procedure: (C) iNKT cells are activated by α-GalCer pulsed CD11b^+ cells from IAV infected patients. IFN-γ release from iNKT cells incubated for 24 h with α-GalCer pulsed CD11b^+ cells, derived from the IAV infected patients and healthy controls described in FIG. 7. Data represent the average of 3 replicates ±S.D.

BM derived MDSC [4] = assay: Phenotypic analysis of treated MDSC (FACS); format: cell-based, mouse
[5] = test system: EG7 cells (EL4 tumor cell line transfected with ovalbumin cDNA); design: species or system C57 BL/6 mice; settings: mouse, in vivo, iv

CCCCCCCCCCCCCCCCCCCCCCCCCC(=O)N[C@@H](CO[C@H]1O[C@H](CO)[C@H](O)[C@H](O)[C@H]1O)[C@H](O)[C@H](O)CCCCCCCCCCCCCC [α-GalCer, α-Galactosylceramide]
MDSC suppression of CFSE labelled OT-I proliferation (BM derived MDSC [1]): completely relieved | iNKT cell dependent MDSC lysis (human MDSC): did not cause iNKT cell dependent MDSC lysis | NOS2 activity (NOS2): reduction | suppressive activity of CD11b+ cells collected from IAV infected individuals (MLR proliferation) [2]: could be reduced | ARG1 activity (ARG1): reduction | frequency of Melan-A26-35 specific T cells (CD11bCD15 positive cells; in the absence of added iNKT cells, unpulsed 0.34%): 0.32% | frequency of Melan-A26-35 specific T cells (CD11bCD15 positive cells; with addition of autologous iNKT cells): 3.05% and 6.42% | lysis of pulsed MDSC by iNKT cells (BM derived MDSC [3]): not lysed | secretion of IL-12 p40 (IL-12p40): enhanced secretion | secretion of IL-23 and IL-12p70 (IL-23 and IL-12p70): No secretion | activation of iNKT cells (IFN-γ release) (iNKT cells): activated | differentiation of CD11c- MDSC (CD11c expression) (BM derived MDSC [4]; CFSE labelled α-GalCer pulsed MDSC incubated with iNKT cells, 48 h): differentiation into CD11c^+ cells | CD86 and MHC class II expression (BM derived MDSC [4]; α-GalCer pulsed MDSC incubated with iNKT cells, data not shown): up-regulation | frequency of MDSCs (CD11b+Gr1+ positive cells) [5]: lower frequency | frequency of Ova specific T cell responses (H-2Kb tetramer staining) [5]: higher frequency | tumor size / tumor regression [5]: Tumour regression
